Tests used:
[1] = system: Diamond Back Moth (Plutella xylostella); test: Insecticidal effect on diamond back moth (Test Example 1); format: in vivo; details: 50 ppm; Chinese cabbage seedling with deposited eggs immersed about 30 seconds; 25° C.; six days after the immersion
Description: Insecticidal Effect on Diamond Back Moth (Plutella xylostella)
Adult diamondback moths were released and allowed to oviposit on a Chinese cabbage seedling. Two days after the release, the seedling having the eggs deposited thereon was immersed for about 30 seconds in a liquid chemical prepared by diluting a preparation containing each compound listed in Table 1, 2 or 3 as an active ingredient to adjust the concentration to 50 ppm. After air-dryness, it was allowed to stand in a room thermostatted at 25° C. Six days after the immersion, the hatched insects were counted. The mortality was calculated according to the following equation and the insecticidal effect was judged according to the criterion shown below. The test was carried out with triplicate groups of 10 insects.

[2] = system: Smaller tea Tortrix (Adoxophyes sp.); test: Insecticidal effect on smaller tea tortrix (Test Example 3); format: in vivo; details: 50 ppm; tea leaf immersed 30 seconds; larvae; 25° C., humidity 70%; eight days after the inoculation
Procedure: Insecticidal Effect on Smaller tea Tortrix (Adoxophyes sp.)
A leaf of tea tree was immersed for 30 seconds in a liquid chemical containing each compound listed in Table 1, 2 or 3 as an active ingredient to adjust the concentration to 50 ppm. After air-dryness, the leaf was transferred to a plastic dish with a diameter of 9 cm and inoculated with larval smaller tea tortrix. Then, the leaf was allowed to stand in a room thermostatted at 25° C. at a humidity of 70%. Eight days after the inoculation, the dead and alive were counted, and the insecticidal effect was judged according to the same criterion as mentioned in Test Example 1. The test was carried out with triplicate groups of 10 insects.

Row | SMILES | Test Example 1 insecticidal effect (mortality) [1] | Test Example 3 insecticidal effect (mortality) [2]
1 | CCCN(CCSC)C(=O)c1c(F)cccc1C(=O)Nc1ccc(C(F)(C(F)(F)F)C(F)(F)F)cc1C [2-3] | A (100) | A (100)
2 | CCN(CCS(C)(=O)=O)C(=O)c1c(F)cccc1C(=O)Nc1ccc(C(F)(C(F)(F)F)C(F)(F)F)cc1C [2-12] | A (100) | A (100)
3 | CCN(CCC[S+](C)[O-])C(=O)c1c(F)cccc1C(=O)Nc1ccc(C(F)(C(F)(F)F)C(F)(F)F)cc1C (centres unmarked) [2-13] | A (100) | A (100)
4 | CSCC(C)NC(=O)c1ccccc1C(=O)Nc1ccc(C(F)(C(F)(F)F)C(F)(F)F)cc1C (centres unmarked) [Compound No. 16] | A (100) | A (100)
5 | CSCC(C)NC(=O)c1c(I)cccc1C(=O)Nc1ccc(OC(F)(F)F)cc1 (centres unmarked) [compound 8] | A (100) | C (89-80)
6 | CCSCC(C)NC(=O)c1c(I)cccc1C(=O)Nc1ccc(Cl)cc1C (centres unmarked) [compound 24] | A (100) | A (100)
7 | CSCC(C)NC(=O)c1ccc(Cl)c(Cl)c1C(=O)Nc1ccc(OC(F)(F)F)cc1C (centres unmarked) [compound 38] | A (100) | A (100)
8 | CSCC(C)NC(=O)c1cc(Cl)ccc1C(=O)Nc1ccc(C(F)(F)C(F)(F)F)cc1C (centres unmarked) [compound 43] | A (100) | A (100)
9 | CSCC(C)NC(=O)c1c(C(=O)Nc2ccc(OC(F)(F)F)cc2C)ccc(F)c1F (centres unmarked) [compound 44] | A (100) | A (100)
10 | CCC(Oc1ccc(NC(=O)c2cccc(I)c2C(=O)NC(C)CSC)c(C)c1)=C(C(F)(F)F)C(F)(F)F (centres unmarked) [compound 46] | A (100) | A (100)
11 | CSCCNC(=O)c1c(I)cccc1C(=O)Nc1ccc(C(F)(F)C(F)(F)F)cc1C [compound 53] | A (100) | A (100)
12 | CSCCCNC(=O)c1c(I)cccc1C(=O)Nc1ccc(C(F)(C(F)(F)F)C(F)(F)F)cc1C [compound 57] | A (100) | A (100)
13 | Cc1cc(C(F)(F)C(F)(F)F)ccc1NC(=O)c1cccc(I)c1C(=O)NCCSC(C)C [compound 59] | A (100) | A (100)
14 | Cc1cc(C(F)(C(F)(F)F)C(F)(F)F)ccc1NC(=O)c1cccc(I)c1C(=O)NCCSC(C)C [compound 60] | A (100) | A (100)
15 | CCCCSCC(C)NC(=O)c1c(I)cccc1C(=O)Nc1ccc(OC(F)(F)F)cc1C (centres unmarked) [compound 63] | A (100) | A (100)
16 | CCCCSCC(C)NC(=O)c1c(I)cccc1C(=O)Nc1ccc(C(F)(F)C(F)(F)F)cc1C (centres unmarked) [compound 64] | A (100) | A (100)
17 | CCSCCNC(=O)c1c(I)cccc1C(=O)Nc1ccc(C(F)(F)C(F)(F)F)cc1C [compound 72] | A (100) | A (100)
18 | Cc1cc(OC(F)(F)F)ccc1NC(=O)c1cccc(I)c1C(=O)NC(C)CSC1CCCCC1 (centres unmarked) [compound 82] | A (100) | A (100)
19 | Cc1cc(C(F)(F)C(F)(F)F)ccc1NC(=O)c1cccc(I)c1C(=O)NC(C)CSC1CCCCC1 (centres unmarked) [compound 85] | A (100) | A (100)
20 | CSCC(NC(=O)c1c(I)cccc1C(=O)Nc1ccc(C(F)(C(F)(F)F)C(F)(F)F)cc1C)c1ccccc1 (centres unmarked) [compound 89] | A (100) | A (100)
21 | CSCC(NC(=O)c1c(I)cccc1C(=O)Nc1ccc(C(F)(F)C(F)(F)F)cc1C)c1ccccc1 (centres unmarked) [compound 90] | A (100) | A (100)
22 | CSCC(C)NC(=O)c1c(C(=O)Nc2ccc(C(F)(F)C(F)(F)F)cc2C)cccc1[N+](=O)[O-] (centres unmarked) [compound 105] | A (100) | A (100)
23 | CSCC(C)NC(=O)c1ccc(I)cc1C(=O)Nc1ccc(C(F)(F)C(F)(F)F)cc1C (centres unmarked) [compound 111] | A (100) | B (99-90)

Row | SMILES | Test Example 1 insecticidal effect (mortality) [1] | Test Example 3 insecticidal effect (mortality) [2]
24 | Cc1cc(C(F)(C(F)(F)F)C(F)(F)F)ccc1NC(=O)c1cccc(I)c1C(=O)NC(C)CSC(C)(C)C (centres unmarked) [compound 117] | A (100) | A (100)
25 | Cc1cc(C(F)(C(F)(F)F)C(F)(F)F)ccc1NC(=O)c1cccc(I)c1C(=O)NC(C[S+](C)[O-])c1ccccc1 (centres unmarked) [compound 137] | A (100) | A (100)
26 | CSCCCC(C)NC(=O)c1cccc(Cl)c1C(=O)Nc1ccc(C(F)(C(F)(F)F)C(F)(F)F)cc1C (centres unmarked) [compound 155] | A (100) | A (100)
27 | CSCCC(C)NC(=O)c1c(I)cccc1C(=O)Nc1ccc(OC(F)(F)F)cc1C (centres unmarked) [compound 164] | A (100) | A (100)
28 | Cc1cc(C(F)(C(F)(F)F)C(F)(F)F)ccc1NC(=O)c1cccc(Cl)c1C(=O)NC(C)(C)CS(C)(=O)=O [compound 171] | A (100) | A (100)
29 | CCS(=O)(=O)CCCCC(C)NC(=O)c1c(I)cccc1C(=O)Nc1ccc(C(F)(F)C(F)(F)F)cc1C (centres unmarked) [compound 179] | A (100) | A (100)
30 | CCS(=O)(=O)CCCCC(C)NC(=O)c1c(I)cccc1C(=O)Nc1ccc(C(F)(C(F)(F)F)C(F)(F)F)cc1C (centres unmarked) [compound 180] | A (100) | A (100)
31 | CSCCSCC(C)NC(=O)c1c(I)cccc1C(=O)Nc1ccc(OC(F)(F)F)cc1C (centres unmarked) [compound 190] | A (100) | A (100)
32 | CC[S+]([O-])CCCC(C)NC(=O)c1c(I)cccc1C(=O)Nc1ccc(C(F)(C(F)(F)F)C(F)(F)F)cc1C (centres unmarked) [compound 202] | A (100) | A (100)
33 | CCS(=O)(=O)CCCC(C)NC(=O)c1c(Br)cccc1C(=O)Nc1ccc(C(F)(C(F)(F)F)C(F)(F)F)cc1C (centres unmarked) [compound 215] | A (100) | A (100)
34 | CSCC(C)NC(=O)c1c(C(=O)Nc2ccc(Oc3ncc(C(F)(F)F)cc3Cl)cc2C)cccc1[N+](=O)[O-] (centres unmarked) [compound 224] | A (100) | A (100)
35 | CCS(=O)(=O)CC(C)(C)NC(=O)c1c(I)cccc1C(=O)Nc1ccc(OC(F)(F)F)cc1C [compound 251] | – | A (100)
36 | CSCC(C)(C)NC(=O)c1c(C(=O)Nc2ccc(OC(F)(F)F)cc2C)ccc2c1OCO2 [compound 252] | A (100) | A (100)
37 | Cc1cc(OC(F)(F)F)ccc1NC(=O)c1cccc([N+](=O)[O-])c1C(=O)NC(C)C[S+](C)[O-] (centres unmarked) [compound 389] | A (100) | –
38 | Cc1cc(C(F)(F)F)ccc1NC(=O)c1cccc([N+](=O)[O-])c1C(=O)NC(C)C[S+](C)[O-] (centres unmarked) [compound 390] | A (100) | –
39 | Cc1cc(C(F)(F)C(F)(F)F)ccc1NC(=O)c1cccc([N+](=O)[O-])c1C(=O)NC(C)C[S+](C)[O-] (centres unmarked) [compound 391] | A (100) | –
40 | Cc1cc(C(F)(C(F)(F)F)C(F)(F)F)ccc1NC(=O)c1cccc(I)c1C(=O)NC1(C[S+](C)[O-])CCCC1 (centres unmarked) [compound 446] | A (100) | –
41 | Cc1cc(C(F)(C(F)(F)F)C(F)(F)F)ccc1NC(=O)c1cccc(I)c1C(=O)NC1(CS(C)(=O)=O)CCCC1 [compound 447] | A (100) | –
42 | CSCCC(CO)NC(=O)c1c(I)cccc1C(=O)Nc1ccc(C(F)(C(F)(F)F)C(F)(F)F)cc1C (centres unmarked) [compound 452] | A (100) | –
43 | CC(C)CC(C)c1cc(C(F)(C(F)(F)F)C(F)(F)F)ccc1NC(=O)c1cccc(I)c1C(=O)NC(C)(C)C[S+](C)[O-] (centres unmarked) [compound 465] | A (100) | –
44 | CSCC(C)(C)NC(=O)c1c(I)cccc1C(=O)Nc1ccc(C(=O)c2ccc(Cl)cc2)cc1C [compound 469] | A (100) | –
45 | CCN(CC)S(=O)(=O)c1ccc(NC(=O)c2cccc(I)c2C(=O)NC(C)(C)CSC)cc1 [compound 478] | A (100) | –
